The values below come from PMC9822021, “Biological Activity of Amidino-Substituted Imidazo [4,5-b]pyridines” (Molecules, 2022).

Each structure is given as a SMILES string. Read-outs that look alike come from different tables or passages of the source.

Data set [1] deals with HCT-116 colorectal carcinoma cells. As to the kind of experiment: In vitro antiproliferative activity, MTS proliferation assay. In kind it is cell-based. The note with it: Homo sapiens, 72 h.
The subject of data set [2] is K-562 chronic myeloid leukemia cells. The description is as above. In kind it is cell-based. The note with it: Homo sapiens, K562, 72 h.
In data set [3] the test system is LN-229 glioblastoma cells. The description is as above. Format: cell-based. The note with it: Homo sapiens, 72 h.
Data set [4] relates to NCI-H460 lung carcinoma cells. The data set is described as above. Format: cell-based. To be noted: Homo sapiens, 72 h.
Data set [5] relates to PC3 prostate carcinoma cells. As to the kind of experiment: In vitro antiproliferative activity, MTT assay. To be noted: Homo sapiens, 72 h. Format: cell-based. The method, boiled down:
(§1)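 SW620, PC3 and HeLa cells were seeded at 1 × 10^4 to 3 × 10^4 cells/mL and exposed for 72 h to five 10-fold dilutions (10^−8 to 10^−4 M). Growth was read by MTT at 570 nm; IC50 came from OD values, quadruplicate, ≥2 experiments. Z-138 growth was read by MTS at 490 nm after 72 h.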

The test system of data set [6] is SW620 colon carcinoma cells. Put plainly: In vitro antiproliferative activity, MTT assay. Format: cell-based. The note with it: Homo sapiens, SW-620, 72 h. The method, boiled down:
as §1

In data set [7] the test system is HeLa cervical carcinoma cells. As to the kind of experiment: In vitro antiproliferative activity, MTT assay. To be noted: Homo sapiens, 72 h. In kind it is cell-based. The method, boiled down:
as §1

Data set [8] can be described thus: in vitro.
Data set [9] in a line: in vitro. The note with it: human.
Data set [10] is described as follows: in vitro. The note with it: human. The source holds these as a separate data set.
For the next data set, the system named is S. Pneumoniae ATCC 49619. As to the kind of experiment: Antibacterial activity in vitro, broth microdilution. Format: cell-based. The note with it: Streptococcus pneumoniae, ATCC49619; broth microdilution (CLSI), 16–24 h at 37 °C. The gist of the method: (§2)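 CLSI broth microdilution in Ca-adjusted MH media; inoculum from direct colony suspension at 0.5 McFarland, further diluted 100×.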

Another data set concerns S. aureus ATCC 29213. Described as above. Format: cell-based. The note with it: Staphylococcus aureus, ATCC29213; broth microdilution (CLSI), 16–24 h at 37 °C. The method, boiled down:
as §2

A further data set has as its system E. coli ATCC 25922. Described as above. Format: cell-based. The note with it: Escherichia coli, ATCC25922; broth microdilution (CLSI), 16–24 h at 37 °C. The method, boiled down: as §2
Data set [11] is described as follows: in vitro. The note with it: dog.
Data set [12] concerns Z-138 non-Hodgkin lymphoma cells. As to the kind of experiment: In vitro antiproliferative activity, MTS proliferation assay. Format: cell-based, human. The note with it: Homo sapiens, Z-138, 72 h. The method, boiled down: as §1
Data set [13] concerns HL-60 acute myeloid leukemia cells. The description is as above. To be noted: Homo sapiens, 72 h. In kind it is cell-based. The gist of the method: (§3)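 Cells grown in media with 10% FBS were incubated 72 h with compounds, then viability was read with MTS reagent. Compounds were tested in two independent experiments.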
Data set [14] has as its system Capan-1 pancreatic adenocarcinoma cells. Described as above. In kind it is cell-based. To be noted: Homo sapiens, 72 h. The method, boiled down: as §3
Data set [15] concerns DND-41 acute lymphoblastic leukemia cells. The data set is described as above. To be noted: Homo sapiens, DND41, 72 h. Format: cell-based. The gist of the method:
as §3

The next data set has as its system E. coli Efflux Del. As to the kind of experiment: microbe, parasite or virus in culture. In kind it is cell-based. To be noted: Escherichia coli, read-out: MIC E. coli Efflux Del. The gist of the method:
as §2

As to `CC(C)NC(=N)c1ccc(-c2nc3ncccc3[nH]2)cc1.Cl` [Compound 13, 4-(1H-Imidazo[4,5-b]pyridin-2-yl)-N-isopropylbenzimidamide Hydrochloride], the melting point was in the range of 293 to 295 °C. The 50% inhibitory concentration (IC50) in data set [1] is > 100 µM. The IC50 in data set [2] was > 100 µM. Also, the IC50 in [3] was > 100 µM. The 50% inhibitory concentration (IC50) in [4] is > 100 µM. Besides, in data set [5], the half-maximal inhibitory concentration (IC50) was > 100 µM. Also, the IC50 in data set [6] is > 100 µM. In [7], the IC50 is > 100 µM. In addition, the CC50 in the data set “in vitro [8]” was > 30 µM. Besides, in “in vitro [9]”, the CC50 was > 100 µM. In the data set “in vitro [10]”, this compound showed a CC50 of 81.1 ± 26.8 µM. Also, the MIC against S. Pneumoniae ATCC 49619 was > 64 µM. In the data set with S. aureus ATCC 29213, the MIC is > 64 µM. Also, in the data set with E. coli ATCC 25922, the MIC is > 64 µM. Further, the CC50 in “in vitro [11]” was > 100 µM. The half-inhibitory concentration (IC50) in [12] is > 100 µM. Further, the IC50 in data set [13] is > 100 µM. The concentration for half-maximal inhibition (IC50) in data set [14] was > 100 µM. Further, the IC50 in data set [15] was > 100 µM. For the same compound, the MIC in the data set on E. coli Efflux Del was > 64 µM.
On to `Brc1cnc2nc(-c3ccc(C4=NCCCN4)cc3)[nH]c2c1.Cl` [Compound 15, 6-Bromo-2-(4-(1,4,5,6-tetrahydropyrimidin-2-yl)phenyl)-1H-imidazo[4,5-b]pyridine Hydrochloride], for which the melting point is > 300 °C. In addition, the concentration for half-maximal inhibition (IC50) in data set [1] is > 100 µM. Moreover, in [2], the IC50 is > 100 µM. The compound also yielded a half-inhibitory concentration (IC50) in data set [3] of 73.5 ± 0.8 µM. Further, the IC50 in data set [4] is > 100 µM. In [5], this compound registered an IC50 of 8.6 ± 0.7 µM. In data set [6], the IC50 was 3.5 ± 0.2 µM. The compound further yielded an IC50 in data set [7] of 7.3 ± 0.4 µM. Further, the CC50 in “in vitro [8]” was > 30 µM. Moreover, the MIC with S. Pneumoniae ATCC 49619 was > 64 µM. Further, in the data set with S. aureus ATCC 29213, the MIC was > 64 µM. For the same compound, the MIC in the data set with E. coli ATCC 25922 is > 64 µM. Also, in “in vitro [11]”, the CC50 is > 100 µM. It took 29.1 ± 16.5 µM to reach half-maximal inhibition in data set [12] (IC50). Moreover, in data set [13], the IC50 is > 100 µM. In data set [14], the IC50 was > 100 µM. The compound further displayed an IC50 in data set [15] of 17 ± 1.3 µM. Moreover, the MIC in the data set with E. coli Efflux Del was > 64 µM.
